Measured values: the supplement of paper PMC10307832

Columns and labels:
Assay in all cases: relative viability (nuclei count vs DMSO), 5 days (fraction); higher = more cells survive
[1] = compound: C1COCCN1C2=NC(=NC3=C2OC4=C3C=CC=N4)C5=CC(=CC=C5)NC(=O)C6=CN=C(C=C6)N + CC(=O)Nc1cccc(-n2c(=O)n(C3CC3)c(=O)c3c(Nc4ccc(I)cc4F)n(C)c(=O)c(C)c32)c1 [Trametinib] (partner 0.02 µM)
How it was run: (§1)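 Medians of duplicate plates are given as relative viability. That measure is the nuclei count in treated wells divided by the count in vehicle wells. Counts were taken on 4× images of lung cancer cell lines in 1536-well plates, 5 days after pin-tool dosing the day after seeding with one drug alone or a fixed anchor-drug dose plus five library-drug doses (not always all listed) in √10 steps.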

Entinostat + Decitabine = compound: Nc1ccccc1NC(=O)c1ccc(CNC(=O)OCc2cccnc2)cc1 [Entinostat] + Nc1ncn([C@H]2C[C@H](O)[C@@H](CO)O2)c(=O)n1 [Decitabine] (partner 2 µM)
How it was run: as §1

[2] = compound: C1COCCN1C2=NC(=NC3=C2OC4=C3C=CC=N4)C5=CC(=CC=C5)NC(=O)C6=CN=C(C=C6)N + Nc1nc2[nH]cc(CCc3ccc(C(=O)N[C@@H](CCC(=O)O)C(=O)O)cc3)c2c(=O)[nH]1 [Pemetrexed] (partner 0.2 µM)
How it was run: as §1

Entinostat + Alpelisib = compound: Nc1ccccc1NC(=O)c1ccc(CNC(=O)OCc2cccnc2)cc1 [Entinostat] + Cc1nc(NC(=O)N2CCC[C@H]2C(N)=O)sc1-c1ccnc(C(C)(C)C(F)(F)F)c1 [Alpelisib] (partner 2 µM)
How it was run: as §1

Cell Line	relative viability ([1]; first compound 0.02 µM)	relative viability ([1]; first compound 0.06325 µM)	relative viability ([1]; first compound 0.2 µM)	relative viability ([1]; first compound 0.6325 µM)	relative viability ([1]; first compound 2 µM)	relative viability (Entinostat + Decitabine; first compound 0.02 µM)	relative viability (Entinostat + Decitabine; first compound 0.06325 µM)	relative viability (Entinostat + Decitabine; first compound 0.2 µM)	relative viability (Entinostat + Decitabine; first compound 0.6325 µM)	relative viability (Entinostat + Decitabine; first compound 2 µM)	relative viability ([2]; first compound 0.02 µM)	relative viability ([2]; first compound 0.06325 µM)	relative viability ([2]; first compound 0.2 µM)	relative viability ([2]; first compound 0.6325 µM)	relative viability ([2]; first compound 2 µM)	relative viability (Entinostat + Alpelisib; first compound 0.02 µM)	relative viability (Entinostat + Alpelisib; first compound 0.06325 µM)	relative viability (Entinostat + Alpelisib; first compound 0.2 µM)	relative viability (Entinostat + Alpelisib; first compound 0.6325 µM)	relative viability (Entinostat + Alpelisib; first compound 2 µM)
LC-2-ad	0.959	0.983	0.962	0.899	0.654	0.833	0.74	0.642	0.611	0.438	0.263	0.292	0.289	0.253	0.262	0.864	0.777	0.761	0.348	0.187
NCI-H3122	0.275	0.249	0.233	0.229	0.175	0.439	0.47	0.477	0.339	0.243	0.207	0.199	0.183	0.186	0.183	0.777	0.881	0.786	0.733	0.605
LCLC-97TM1	0.187	0.205	0.204	0.169	0.134	0.23	0.213	0.314	0.163	0.16	0.199	0.195	0.181	0.203	0.2	0.262	0.224	0.245	0.225	0.156
NCI-H520	0.493	0.806	0.758	0.528	0.494	0.571	0.464	0.482	0.385	0.35	0.653	0.752	0.655	0.685	0.351	0.836	0.848	0.963	0.764	0.451
NCI-H1792	0.451	0.477	0.368	0.374	0.231	0.613	0.505	0.48	0.354	0.196	1.02	0.924	0.586	0.638	0.276	0.752	0.673	0.543	0.381	0.223
NCI-H358	0.132	0.138	0.122	0.127	0.244	0.188	0.201	0.173	0.153	0.137	0.176	0.182	0.137	0.222	0.135	0.807	0.962	0.965	0.551	0.284
NCI-H1755	0.741	0.827	0.741	0.754	0.617	0.681	0.71	0.583	0.494	0.45	0.447	0.431	0.465	0.388	0.362	0.87	0.921	0.838	0.512	0.353
EPLC-272H	0.278	–	0.235	0.297	0.281	0.409	0.383	0.325	0.25	0.218	0.301	0.318	0.272	0.298	0.319	0.955	0.998	0.795	0.526	0.38
